Experimental data as given in patent publication US8513270B2, “Substituted heterocycles as Janus kinase inhibitors” (Incyte Corporation, priority 2006, dated 2013).
Structures can show the parent of a compound that is named as a salt.

What was measured:
[1] = biological target: T1, human JAK2 (a.a. 828-1132) (Homo sapiens, UniProt O60674); experiment: In vitro JAK kinase assay (HTRF), JAK2; format: biochemical; conditions: JAK2, 30 μM ATP; read-out: EXAMPLE A HTS-JAK2 HTRF-2 IC50
T1 construct: JAK2 (a.a. 828-1132); His tag (N); made in house; host or cells: insect cells (baculovirus)
Protocol: (§1) Compounds herein were tested for inhibitory activity of JAK targets according to the following in vitro assay described in Park et al., Analytical Biochemistry 1999, 269, 94-104. The catalytic domains of human JAK1 (a.a. 837-1142), JAK2 (a.a. 828-1132) and JAK3 (a.a. 781-1124) with an N-terminal His tag were expressed using baculovirus in insect cells and purified. The catalytic activity of JAK1, JAK2 or JAK3 was assayed by measuring the phosphorylation of a biotinylated peptide. The phosphorylated peptide was detected by homogenous time resolved fluorescence (HTRF). IC50s of compounds were measured for each kinase in the reactions that contain the enzyme, ATP and 500 nM peptide in 50 mM Tris (pH 7.8) buffer with 100 mM NaCl, 5 mM DTT, and 0.1 mg/mL (0.01%) BSA. The ATP concentration in the reactions was 90 μM for JAK1, 30 μM for JAK2 and 3 μM for JAK3. Reactions were carried out at room temperature for 1 hr and then stopped with 20 μL 45 mM EDTA, 300 nM SA-APC, 6 nM Eu—Py20 in assay buffer (Perkin Elmer, Boston, Mass.). Binding to the Europium labeled antibody took place for 40 minutes and HTRF signal was measured on a Fusion plate reader (Perkin Elmer, Boston, Mass.).

[2] = biological target: T2, human JAK1 (a.a. 837-1142) (Homo sapiens, UniProt P23458); experiment: In vitro JAK kinase assay (HTRF), JAK1; format: biochemical; conditions: JAK1, 90 μM ATP; read-out: EXAMPLE A JAK2-JAK1 HTRF-2 IC50
T2 construct: human JAK1 (a.a. 837-1142); His tag (N); made in house; host or cells: insect cells (baculovirus)
Protocol: as §1

[3] = biological target: T3, human JAK3 (a.a. 781-1124) (Homo sapiens, UniProt P52333); experiment: In vitro JAK kinase assay (HTRF), JAK3; format: biochemical; conditions: JAK3, 3 μM ATP; read-out: EXAMPLE A JAK2-JAK3 HTRF-2 IC50
T3 construct: JAK3 (a.a. 781-1124); His tag (N); made in house; host or cells: insect cells (baculovirus)
Protocol: as §1

[4] = biological target: TF1-BCRABL1 cells (Homo sapiens, UniProt P00519); experiment: ABL1 cell based assay: viability of ABL1-dependent cell line (CellTiter-Glo); conditions: 72 hours, cell viability; read-out: EXAMPLE F JAK2-TF1-BCRABL1 IC50
Protocol: One or more compounds herein were tested for inhibitory activity of ABL1 targets according to at least one of the following cellular assays.
Cancer cell lines dependent on ABL1 kinase activity for proliferation and/or survival were plated at 3000 cells per well (96 well plate format) in RPMI 1640, and 10% FBS. Compounds were added to the cells in DMSO/media (final concentration 0.2% DMSO) and incubated for 72 hours at 37° C., 5% CO2. The effect of compound on cell viability was assessed using the CellTiter-Glo Luminescent Cell Viability Assay (Promega) followed by TopCount (Perkin Elmer, Boston, Mass.) quantitation. ABL1-dependent cell lines can include those naturally dependent on ABL1 activity or those engineered to be dependent on ABL1 activity (e.g. BaF/3 cells). The latter can be generated using wild-type ABL1 or mutant ABL1 (such as T315I ABL1) so that the activity of compounds can be assessed against different variants of the ABL1 kinase. Potential off-target effects of compounds were measured in parallel using a non-ABL1 driven cell line with the same assay readout. […] All experiments were performed in duplicate or greater.

T1 sequence (O60674 828-1132): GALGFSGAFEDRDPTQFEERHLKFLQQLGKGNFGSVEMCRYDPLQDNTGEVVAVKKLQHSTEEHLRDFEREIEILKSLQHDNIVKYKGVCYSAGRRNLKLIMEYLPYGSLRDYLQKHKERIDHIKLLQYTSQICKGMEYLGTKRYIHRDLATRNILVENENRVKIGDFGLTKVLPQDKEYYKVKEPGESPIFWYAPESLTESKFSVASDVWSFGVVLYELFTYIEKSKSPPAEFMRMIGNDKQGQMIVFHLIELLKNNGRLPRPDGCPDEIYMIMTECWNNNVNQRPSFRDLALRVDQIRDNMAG
T2 sequence (P23458 849-1154): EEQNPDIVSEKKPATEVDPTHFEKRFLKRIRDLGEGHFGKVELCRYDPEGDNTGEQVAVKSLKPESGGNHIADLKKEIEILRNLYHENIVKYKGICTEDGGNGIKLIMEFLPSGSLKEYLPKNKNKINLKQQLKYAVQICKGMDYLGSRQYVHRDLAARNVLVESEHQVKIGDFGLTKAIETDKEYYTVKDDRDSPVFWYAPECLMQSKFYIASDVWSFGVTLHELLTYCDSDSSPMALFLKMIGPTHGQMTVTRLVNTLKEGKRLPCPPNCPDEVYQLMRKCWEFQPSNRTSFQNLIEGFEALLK
T3 sequence (P52333 781-1124): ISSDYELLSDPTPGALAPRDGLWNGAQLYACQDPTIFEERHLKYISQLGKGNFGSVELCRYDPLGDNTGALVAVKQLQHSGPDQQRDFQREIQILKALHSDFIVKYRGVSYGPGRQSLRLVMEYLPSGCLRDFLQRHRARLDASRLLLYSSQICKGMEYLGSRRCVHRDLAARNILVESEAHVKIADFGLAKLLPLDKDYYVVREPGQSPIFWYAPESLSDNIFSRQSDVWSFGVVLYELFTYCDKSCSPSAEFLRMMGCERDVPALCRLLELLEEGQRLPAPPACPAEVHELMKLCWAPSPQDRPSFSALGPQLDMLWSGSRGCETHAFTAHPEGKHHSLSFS
Chain of TF1-BCRABL1 cells (P00519 whole entry, change not shown): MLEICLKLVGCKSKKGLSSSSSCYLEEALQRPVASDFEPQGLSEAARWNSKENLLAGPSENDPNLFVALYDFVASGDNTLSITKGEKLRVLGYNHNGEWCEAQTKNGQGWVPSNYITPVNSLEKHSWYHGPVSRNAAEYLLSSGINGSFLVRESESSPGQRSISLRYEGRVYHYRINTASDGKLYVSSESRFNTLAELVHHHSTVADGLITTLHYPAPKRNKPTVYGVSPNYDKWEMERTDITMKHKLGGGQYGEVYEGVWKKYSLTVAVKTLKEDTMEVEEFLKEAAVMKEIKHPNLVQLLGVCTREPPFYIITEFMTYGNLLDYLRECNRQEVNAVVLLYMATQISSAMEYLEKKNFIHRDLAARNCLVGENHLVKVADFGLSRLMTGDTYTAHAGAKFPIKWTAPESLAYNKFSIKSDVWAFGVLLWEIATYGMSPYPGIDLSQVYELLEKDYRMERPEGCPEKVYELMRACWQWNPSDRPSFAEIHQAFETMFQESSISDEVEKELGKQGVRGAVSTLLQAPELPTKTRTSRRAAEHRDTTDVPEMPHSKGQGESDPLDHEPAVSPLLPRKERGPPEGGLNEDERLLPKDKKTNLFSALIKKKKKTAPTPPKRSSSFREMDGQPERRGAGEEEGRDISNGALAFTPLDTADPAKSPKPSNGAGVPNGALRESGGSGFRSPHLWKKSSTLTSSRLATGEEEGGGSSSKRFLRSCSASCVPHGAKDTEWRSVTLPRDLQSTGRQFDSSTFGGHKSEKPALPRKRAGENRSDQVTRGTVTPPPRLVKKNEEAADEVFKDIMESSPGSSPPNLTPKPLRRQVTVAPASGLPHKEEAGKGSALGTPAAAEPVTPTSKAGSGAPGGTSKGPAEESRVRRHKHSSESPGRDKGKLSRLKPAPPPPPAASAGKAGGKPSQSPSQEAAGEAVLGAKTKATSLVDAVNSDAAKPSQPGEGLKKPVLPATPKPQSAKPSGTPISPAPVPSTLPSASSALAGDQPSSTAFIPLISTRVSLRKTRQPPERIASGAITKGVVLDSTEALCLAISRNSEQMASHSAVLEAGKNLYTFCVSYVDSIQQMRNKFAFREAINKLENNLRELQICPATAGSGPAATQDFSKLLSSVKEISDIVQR

Cc1ccc(NC(=O)c2ccc(F)c(C(F)(F)F)c2)cc1-c1ccc2c(c1)[nH]c1ncncc12 [Example 4, 4-fluoro-N-[4-methyl-3-(9H-pyrimido[4,5-b]indol-7-yl)-phenyl]-3-(trifluoromethyl)benzamide]
≤ 500 nM: IC50 [1] | IC50 [2] | IC50 [3] | GI50 [4]

Cc1ccc(NC(=O)c2cc(C(F)(F)F)ccc2F)cc1-c1ccc2c(c1)[nH]c1ncncc12 [Example 5, 2-fluoro-N-[4-methyl-3-(9H-pyrimido[4,5-b]indol-7-yl)-phenyl]-5-(trifluoromethyl)-benzamide]
≤ 500 nM: IC50 [1] | IC50 [2] | IC50 [3] | GI50 [4]

Cc1ccc(NC(=O)c2cc(C(F)(F)F)cc(Cl)c2F)cc1-c1ccc2c(c1)[nH]c1ncncc12 [Example 8, 3-chloro-2-fluoro-N-[4-methyl-3-(9H-pyrimido[4,5-b]-indol-7-yl)phenyl]-5-(trifluoro-methyl)benzamide]
≤ 500 nM: IC50 [1] | IC50 [2] | IC50 [3] | GI50 [4]

Cc1ccc(NC(=O)c2cc(C(F)(F)F)cc(C(F)(F)F)c2)cc1-c1ccc2c(c1)[nH]c1ncncc12 [Example 9, N-[4-methyl-3-(9H-pyrimido-[4,5-b]indol-7-yl)phenyl]-3,5-bis(trifluoromethyl)benzamide]
≤ 500 nM: IC50 [1] | IC50 [2] | IC50 [3] | GI50 [4]

COc1ccc(C(=O)Nc2ccc(C)c(-c3ccc4c(c3)[nH]c3ncncc34)c2)cc1C(F)(F)F [Example 10, 4-methoxy-N-[4-methyl-3-(9H-pyrimido[4,5-b]indol-7-yl)-phenyl]-3-(trifluoromethyl)-benzamide]
≤ 500 nM: IC50 [1] | IC50 [2] | IC50 [3] | GI50 [4]

O=C(Nc1ccc(Cl)c(-c2ccc3c(c2)[nH]c2ncncc23)c1)c1cccc(C(F)(F)F)c1 [Example 17, N-[4-chloro-3-(9H-pyrimido-[4,5-b]indol-7-yl)phenyl]-3-(trifluoromethyl)benzamide]
≤ 500 nM: IC50 [1] | IC50 [2] | IC50 [3] | GI50 [4]

Cc1ccc(NC(=O)c2cc(C(F)(F)F)ccn2)cc1-c1ccc2c(c1)[nH]c1ncncc12 [Example 18, N-[4-methyl-3-(9H-pyrimido[4,5-b]indol-7-yl)-phenyl]-4-(trifluoromethyl) pyridine-2-carboxamide]
≤ 500 nM: IC50 [1] | IC50 [2] | IC50 [3] | GI50 [4]

Cc1ccc(NC(=O)c2cc(-n3cnc(C=O)c3)cc(C(F)(F)F)c2)cc1-c1ccc2c(c1)[nH]c1ncncc12 [Example 20, 3-(4-Formyl-1H-imidazol-1-yl)-N-[4-methyl-3-(9H-pyrimido[4,5-b]indol-7-yl)phenyl]-5-(trifluoromethyl)benzamide trifluoroacetate]
≤ 500 nM: IC50 [1] | IC50 [2] | IC50 [3] | GI50 [4]

Cc1ccc(NC(=O)c2cc(-n3cnc(CO)c3)cc(C(F)(F)F)c2)cc1-c1ccc2c(c1)[nH]c1ncncc12 [Example 21, 3-[4-(Hydroxymethyl)-1H-imidazol-1-yl]-N-[4-methyl-3-(9H-pyrimido[4,5-b]indol-7-yl)phenyl]-5-(trifluoromethyl)benzamide bis(trifluoroacetate) (salt)]
≤ 500 nM: IC50 [1] | IC50 [2] | IC50 [3] | GI50 [4]

CNCc1cn(-c2cc(C(=O)Nc3ccc(C)c(-c4ccc5c(c4)[nH]c4ncncc45)c3)cc(C(F)(F)F)c2)cn1 [Example 22, 3-4-[(Methylamino)methyl]-1H-imidazol-1-yl-N-[4-methyl-3-(9H-pyrimido[4,5-b]-indol-7-yl)phenyl]-5-(trifluoromethyl)benzamide tris(trifluoroacetate)]
≤ 500 nM: IC50 [1] | IC50 [2] | IC50 [3] | GI50 [4]

Cc1ccc(NC(=O)c2cc(-n3ccnc3)cc(C(F)(F)F)c2)cc1-c1ccc2c(c1)[nH]c1ncncc12 [Example 23, 3-(1H-imidazol-1-yl)-N-[4-methyl-3-(9H-pyrimido[4,5-b]-indol-7-yl)phenyl]-5-(trifluoromethyl)benzamide]
≤ 500 nM: IC50 [1] | IC50 [2] | IC50 [3] | GI50 [4]

Cc1ccc(NC(=O)c2cc(-n3cncn3)cc(C(F)(F)F)c2)cc1-c1ccc2c(c1)[nH]c1ncncc12 [Example 24, N-[4-methyl-3-(9H-pyrimido-[4,5-b]indol-7-yl)phenyl]-3-(1H-1,2,4-triazol-1-yl)-5-(trifluoromethyl)benzamide]
≤ 500 nM: IC50 [1] | IC50 [2] | IC50 [3] | GI50 [4]

Cc1ccc(NC(=O)c2cc(-n3cnc(CN(C)C)c3)cc(C(F)(F)F)c2)cc1-c1ccc2c(c1)[nH]c1ncncc12 [Example 25, 3-{4-[(dimethylamino)methyl]-1H-imidazol-1-yl}-N-[4-methyl-3-(9H-pyrimido[4,5-b]-indol-7-yl)phenyl]-5-(trifluoro-methyl)benzamide]
≤ 500 nM: IC50 [1] | IC50 [2] | IC50 [3] | GI50 [4]

Cc1ccc(NC(=O)c2cc(N3CCOCC3)cc(C(F)(F)F)c2)cc1-c1ccc2c(c1)[nH]c1ncncc12 [Example 27, N-[4-methyl-3-(9H-pyrimido-[4,5-b]indol-7-yl)phenyl]-3-morpholin-4-yl-5-(trifluoromethyl)benzamide]
≤ 500 nM: IC50 [1] | IC50 [2] | IC50 [3] | GI50 [4]

Cc1ccc(NC(=O)c2cc(N3CCC(O)CC3)cc(C(F)(F)F)c2)cc1-c1ccc2c(c1)[nH]c1ncncc12 [Example 29, 3-(4-hydroxypiperidin-1-yl)-N-[4-methyl-3-(9H-pyrimido[4,5-b]indol-7-yl)phenyl]-5-(trifluoromethyl)benzamide]
≤ 500 nM: IC50 [1] | IC50 [2] | IC50 [3] | GI50 [4]

Cc1ccc(NC(=O)c2cc(N3CCCC(O)C3)cc(C(F)(F)F)c2)cc1-c1ccc2c(c1)[nH]c1ncncc12 (centres unmarked) [Example 30, 3-(3-hydroxypiperidin-1-yl)-N-[4-methyl-3-(9H-pyrimido[4,5-b]indol-7-yl)phenyl]-5-(trifluoromethyl)benzamide]
≤ 500 nM: IC50 [1] | IC50 [2] | IC50 [3] | GI50 [4]

Cc1ccc(NC(=O)c2cc(NCCN3CCOCC3)cc(C(F)(F)F)c2)cc1-c1ccc2c(c1)[nH]c1ncncc12 [Example 31, N-[4-methyl-3-(9H-pyrimido-[4,5-b]indol-7-yl)phenyl]-3-[(2-morpholin-4-ylethyl)amino]-5-(trifluoromethyl)benzamide]
≤ 500 nM: IC50 [1] | IC50 [2] | IC50 [3] | GI50 [4]
